Assay results as given in patent US20220152174A1, “Cancer Antigen Peptide” (National University Corporation Asahikawa Medical University, priority 2018, published 2022).

Legend:
[1] = test system: SYCP3, SPESP1, and DAZL1 gene expression in EBC1, Lu65, and HT-29; assay: Gene expression in cancer cell lines cultured with gemcitabine; assay type: cell-based, human; details: EBC1, Lu65, HT-29 cultured in the presence of gemcitabine
[2] = test system: HLA-DR4, DR8, DR9, DR15, DR53; assay: HLA type restriction of partial DAZL-1 peptides with L-DR cells; assay type: cell-based, human
[3] = test system: helper T-cells; assay: IFN-γ ELISA after DAZL-1C vaccination of Balb/c mice; assay type: in vivo, mouse
Protocol: Two BALB/cAnNCrlCrlj mice (Balb/c, 10 to 16 weeks old, Charles river) were intradermally injected with 100 μg/50 μL DAZL-1C peptide ([…] (SEQ ID NO: 20): synthesized by GenScript) dissolved in phosphate-buffered saline (PBS, KANTO CHEMICAL CO., INC. 73111) using Myjector (TERUMO SS_05M2913) on Days 0 and 10. The mice were euthanized by intraperitoneally administering 200 μL of 500 μg/mL pentobarbital (nacalai tesque 02095-04) on Day 12. After laparotomy, dLNs and spleens were collected and lymphocytes and splenocytes, respectively, were isolated.
The lymphocytes (3×10^5 cells) and the splenocytes (5×10^5 cells) were added to 96-well flat bottom culture plates (Falcon 353072), and the cells were co-cultured in the presence of a control peptide or DAZL-1C peptide (2.5 μg/mL) in the complete medium at 200 μL/well for 24 hours. In order to detect IFN-γ production specific to DAZL-1C peptide, each 100 μL of the culture supernatants after 24 hours were collected, and the IFN-γ concentrations were determined using an ELISA set (BD Biosciences 551866) in accordance with the description of the attached package insert. In order to confirm that the reaction is produced by CD4-positive T-cells, an anti-mouse CD4 antibody (aCD4; BioLegend 100435) or an anti-mouse CD8 antibody (aCD8; BioLegend 100735) was added to some cultures at the final concentration of 5 μg/mL.

[4] = test system: CD4-positive T-cells; assay: IFN-γ ELISPOT after peptide vaccination of HLA transgenic mice; assay type: in vivo, mouse; details: A2.DR1-Tg mice vaccinated with partial peptides, stimulation 3 μg/mL, 24 hours
Protocol: HLA-A*02:01/DRB1*01:01 transgenic mice (A2.DR1-Tg mice, […]; Pasteur Institute, France) were intradermally injected with SYCP3-A peptide (synthesized by GenScript) dissolved in 100 μL of PBS using Myjector on Days […]. The mice were euthanized by intraperitoneally administering 200 μL of 500 μg/mL pentobarbital on Day 15. After laparotomy, tumor-draining lymph nodes (dLNs) and spleens were collected and lymphocytes and splenocytes, respectively, were isolated.
The lymphocytes (3×10^5 cells) and the splenocytes (5×10^5 cells) were added to ELISPOT plates (EMD Millipore, MAHAS4510), and the cells were co-cultured in the presence of a control peptide (a peptide of 15 amino acid residues having a sequence not included in SYCP3) or SYCP3-A peptide selected in Test 4 (3 μg/mL) in the complete medium at 150 μL/well for […]. In order to detect the cells producing IFN-γ specifically to SYCP3-A peptide, the ELISPOT assay was performed using a mouse IFN-γ ELISpot BASIC (ALP) kit (MABTECH 3321-2A). The procedure was in accordance with the description of the attached package insert. BCIP-NBT-plus substrate for ELISpot (MABTECH 3650-10) was used as a chromogenic substrate, and PBS-T was used for washing at each step. In addition, in order to confirm that the reaction is produced by CD4-positive T-cells, an anti-mouse CD4 antibody (BioLegend 100435) or an anti-mouse CD8 antibody (BioLegend 100735) was added to some cultures at the final concentration of 5 μg/mL.
As described above, A2.DR1-Tg mice were vaccinated with these partial peptides, dLNs and spleens were collected from each mouse, lymphocytes and splenocytes were isolated, the cells were stimulated with each partial peptide (3 μg/mL) for 24 hours, and the T-cell responses were determined by ELISPOT. CD4-positive T-cells responded to the partial peptides T2, T3, and T4.

[5] = test system: SYCP3-A-specific Th cells; assay: IFN-γ ELISA of SYCP3-A peptide-specific Th cells co-cultured with PBMCs; assay type: cell-based, human; details: for IFN-γ production of SYCP3-A peptide-specific Th cells: peptide 3 μg/mL, Th cells plus PBMCs of same donor
Protocol: PBMCs were collected from peripheral blood samples of healthy donors by a density gradient separation method using Lymphoprep (Alere Technologies AS 1114547). CD14 positive cells were separated from PBMCs using a magnetic cell separation system (Miltenyi 130-050-201). Differentiation into dendritic cells (DCs) was induced by culturing the cells in the presence of 50 ng/mL GM-CSF (peprotech AF-300-03) and 50 ng/mL IL-4 (peprotech AF-200-04) with 3 mL of a culture medium for human cells in 6-well culture plates (Falcon 353046) for 7 days. The culture medium was AIM-V medium (ThermoFisher SCIENTIFIC 0870112DK) supplemented with 3% of human AB serum (Innovative RESEARCH IPLA-SERAB) inactivated at 56° C. for 30 minutes. Similarly, CD4-positive T-cells were isolated from PBMCs (Miltenyi 130-045-101), and 1×10^5 CD4-positive T-cells were co-cultured with 5×10^4 DCs in the presence of SYCP3-A or SPESP1-B peptide (3 μg/mL) in 96-well flat bottom culture plates (Falcon 353072) at the volume of 200 μL. After 7 days, in order to stimulate the CD4-positive T-cells with the peptide, 100 μL of the culture supernatant was removed from each well, and then SYCP3-A or SPESP1-B peptide (3 μg/mL) and PBMCs (2×10^5) inactivated by gamma-irradiation (40 Gy) were added at the volume of 100 μL. After 2 days, 50 μL of the culture supernatant was removed, and 50 μL of IL-2 (Imunace35, Shionogi) was added at the final concentration of 10 U/mL. For continuous proliferation of the activated CD4-positive T-cells, the cells (1×10^6 cells) were stimulated with SYCP3-A or SPESP1-B peptide and the inactivated PBMCs (1×10^6 cells) every other week and used for the experiments described below.
In order to study the HLA-restriction of the CD4-positive T-cells, an anti-DR antibody (BioLegend 307612) or an anti-HLA-class I antibody (BioLegend 311412) as a control was added to some cultures at the final concentration of 5 μg/mL.

[6] = test system: DAZL1-specific Th cells; assay: IFN-γ ELISA of DAZL-1 peptide-specific Th cells; assay type: cell-based, human
Protocol: (§1) PBMCs were collected from peripheral blood samples of healthy donors by a density gradient separation method using Lymphoprep (Alere Technologies AS 1114547). CD14 positive cells were separated from PBMCs using a magnetic cell separation system (Miltenyi 130-050-201). Differentiation into dendritic cells (DCs) was induced by culturing the cells in the presence of 50 ng/mL GM-CSF (peprotech AF-300-03) and 50 ng/mL IL-4 (peprotech AF-200-04) with 3 mL of a culture medium for human cells in 6-well culture plates (Falcon 353046) for 7 days. The culture medium was AIM-V medium (ThermoFisher SCIENTIFIC 0870112DK) supplemented with 3% of human AB serum (Innovative RESEARCH IPLA-SERAB) inactivated at 56° C. for 30 minutes. Similarly, CD4-positive T-cells were isolated from PBMCs (Miltenyi 130-045-101), and 1×10^5 CD4-positive T-cells were co-cultured with 5×10^4 DCs in the presence of SYCP3-A or SPESP1-B peptide (3 μg/mL) in 96-well flat bottom culture plates (Falcon 353072) at the volume of 200 μL. […]
The IFN-γ concentrations of the culture supernatants were determined in the same manner as in Test 8, except that partial DAZL-1 peptide p11, p12, or p13 was used instead of SYCP3-A peptide. […]

[7] = test system: SPESP1-B-specific Th cells; assay: IFN-γ ELISA of SPESP1-B peptide-specific Th cells; assay type: cell-based, human
Protocol: as §1
The IFN-γ concentrations of the culture supernatants were determined in the same manner as in Test 8, except that SPESP1-B peptide was used instead of SYCP3-A peptide. […]

[8] = target: T1, HLA-DR53 (Homo sapiens, UniProt P01903+P13762); assay: HLA type restriction of SPESP1-B with L-DR53; assay type: cell-based
T1 construct: expressed in transfected cells; host or cells: mouse fibroblast cell line L-DR53
Protocol: The IFN-γ concentrations of the culture supernatants were determined in the same manner as in Test 8, except that SPESP1-B peptide was used instead of SYCP3-A peptide. Two SPESP1-B-specific Th cell clones (HK15 and HK18) were established from one healthy donor. The peptide-specific IFN-γ production was suppressed when the anti-HLA-DR antibody (aDR) was added to the clones.

[9] = target: T1, HLA-DR53; assay: HLA type restriction of SYCP3-A with L-DR mouse fibroblast cells; assay type: cell-based; details: SYCP3-A 3 μg/mL, L-DR53 cells, 24 to 48 hours
Protocol: (§2) Furthermore, in order to identify the HLA type to which the peptide is restricted, the CD4-positive T-cells (5×10^4 cells) and 3×10^4 cells of a mouse fibroblast cell line having HLA-DR4, DR8, DR9, or DR53 gene (L-DR4, L-DR8, L-DR9, or L-DR53) were co-cultured in the presence of SYCP3-A peptide (3 μg/mL) in 96-well flat bottom culture plates using 200 μL of the culture medium for human cells, and after 24 to 48 hours the IFN-γ concentrations in the culture supernatants were determined as described above.

[10] = test system: HLA-DR53; assay: as above; assay type: cell-based, human; details: SYCP3-A 3 μg/mL
Protocol: as §2

T1 sequence (P13762 30-266): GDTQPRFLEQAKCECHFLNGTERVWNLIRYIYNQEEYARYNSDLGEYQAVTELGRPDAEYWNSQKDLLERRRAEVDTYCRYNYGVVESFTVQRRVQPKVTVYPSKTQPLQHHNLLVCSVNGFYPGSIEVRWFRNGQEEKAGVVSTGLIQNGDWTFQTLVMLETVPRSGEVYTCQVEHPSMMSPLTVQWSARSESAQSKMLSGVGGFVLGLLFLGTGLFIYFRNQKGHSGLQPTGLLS
T1 sequence (P01903 26-254): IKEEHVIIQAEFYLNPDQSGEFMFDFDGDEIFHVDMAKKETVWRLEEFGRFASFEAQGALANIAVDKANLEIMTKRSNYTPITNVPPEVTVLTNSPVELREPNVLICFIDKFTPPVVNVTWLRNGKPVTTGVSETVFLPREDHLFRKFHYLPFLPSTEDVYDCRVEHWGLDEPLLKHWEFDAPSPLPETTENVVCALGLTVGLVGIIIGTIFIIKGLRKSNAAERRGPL

Nc1ccn([C@@H]2O[C@H](CO)[C@@H](O)C2(F)F)c(=O)n1 [gemcitabine]
gene expression levels of SYCP3, SPESP1, and DAZL1 [1]: equivalent to those of the controls

DVQKIVESQINFHGKKLKLG (listed as Homo sapiens) [p11]
HLA type bound to stimulate Th cells [2]: HLA-DR4/9/53

DVQKIVESQINFHGKKLKLGPAIRKQNLC (listed as Homo sapiens) [DAZL-1C]
ability to activate helper T-cells (peptide-specific IFN-γ production) ([3]; Balb/c mice, 100 μg i.d. Days 0 and 10, restimulation 2.5 μg/mL, 24 hours): activates helper T-cells
IFN-γ production specific to peptide with anti-CD4 antibody ([3]; anti-mouse CD4 antibody 5 μg/mL): inhibited

INFHGKKLKLGPAIRKQNLC (listed as Homo sapiens) [p12]
HLA type bound to stimulate Th cells [2]: HLA-DR15

KILQQSRIVQSQ (listed as Homo sapiens) [T4]
T-cell response of CD4-positive T-cells to partial peptide by ELISPOT [4]: responded
IFN-γ production of SYCP3-A peptide-specific Th cells [5]: Increased IFN-γ production

LGPAIRKQNLCAYHVQPRPL (listed as Homo sapiens) [p13]
HLA type bound to stimulate Th cells [2]: HLA-DR8
IFN-γ production with anti-HLA-DQ antibody [6]: suppressed

QKILQQSRIVQS (listed as Homo sapiens) [T3]
T-cell response of CD4-positive T-cells to partial peptide by ELISPOT [4]: responded
IFN-γ production of SYCP3-A peptide-specific Th cells [5]: Increased IFN-γ production

QNLNHYIQVLENLVRSVPS (listed as Homo sapiens) [SPESP1-B]
peptide-specific IFN-γ production with anti-HLA-DR antibody ([7]; clones HK15 and HK18, aDR): suppressed
IFN-γ production at low concentration ([7]; peptide 0.0003 μg/mL (serially diluted 0.0003 to 30 μg/mL)): sufficient IFN-γ production
HLA type binding and Th cell stimulation [8]: binds to HLA-DR53 and stimulates Th cells

QQKILQQSRIVQ (listed as Homo sapiens) [T2]
T-cell response of CD4-positive T-cells to partial peptide by ELISPOT [4]: responded

QQQKILQQSRIVQSQRLKT (listed as Homo sapiens) [SYCP3-A]
peptide-specific reaction (IFN-γ) of Th cells to L-DR53 cells [9]: strong peptide-specific reactions
reactivity in samples having no DR53 allele [10]: some reactivity
peptide-specific IFN-γ production with anti-HLA-DR antibody ([5]; SYCP3-A 3 μg/mL, aDR 5 μg/mL, Th clones from three healthy donors): suppressed

QQQKILQQSRVVQSQRLKT (listed as Homo sapiens) [SEQ ID NO: 31, 11th isoleucine residue of SYCP3-A peptide substituted with a valine residue]
reactivity of SYCP3-A peptide-specific Th cells compared with SYCP3-A ([5]; modified or substituted peptide, similarly tested): not decreased
